Experimental data from patent US20260232703A1, “USE OF A SYK INHIBITOR FOR THE TREATMENT OF CHEMICAL OR RADIATION INDUCED LUNG INJURY” (Rigel Pharmaceuticals, Inc., priority 2023, published 2026).
Converted amounts (≈) assume the structure as drawn.

Assays:
[1] = Water solubility in aqueous buffer under physiological conditions; type: physicochemical
[2] = system: WAG/RijCmcr rats, leg-out PBI irradiated; test: Leg-out PBI rat model of radiation-induced lung injury (RILI), lung histology; type: in vivo; details: 13.5 Gy (female) or 13 Gy (male) leg-out PBI rats; fostamatinib 10 or 20 mg/kg; H&E lung sections, 5-point scale; versus untreated irradiated rats
Excerpt: Irradiation. Leg-out PBI rat models: WAG/RijCmcr female and male rats are unilaterally irradiated, dorsal to ventral, without the use of anesthetics at 11-12 weeks of age. Irradiations are done between 8-10 am. For leg-out PBI, non-anesthetized rats are immobilized in a plastic jig and irradiated using a […] orthovoltage x-ray system (Precision X-Ray, North Branford, Connecticut). […] Doses can range from 13-14.5 Gy for female rats and 12.5-14.5 Gy for males. During irradiation, each rat is confined to a chamber which allows irradiation of 2 rats simultaneously. One hind limb of each rat is carefully externalized from the chamber and shielded with a 0.25-inch lead block. […] Whole mount lung sections (4 μm thick) are stained with hematoxylin and eosin (H&E) and also stained with tryptase antibody (IMGENEX catalogue #IMG-80250, 1:150) (Gao et al. Radiat Res 179: 465-74; 2013. [PubMed: 23480564]) and five randomly selected fields (20×) of each lung are evaluated. The foamy macrophages, vascular, and alveolar wall thickness are scored as described previously (Medhora et al. Radiat Res 182: 545-55; 2014. [PubMed: 25361399]; Medhora et al. J Radiat Res 56: 248-60; 2015. [PubMed: 25368342]); injury is measured on a 5-point scale and a mean composite lung injury score is calculated. Mast cells are assessed by positive tryptase staining in five randomly selected fields (20×) of each lung. […]

solubility [1] [µg/mL] | solubility of phosphate prodrug relative to active drug (Compound 1) ([1]; Compound 4 vs Compound 1) | Compound | mean composite lung injury score [2]
1 to 2 (≈ 2.13 to 4.25 µM) | – | COc1cc(Nc2ncc(F)c(Nc3ccc4c(n3)NC(=O)C(C)(C)O4)n2)cc(OC)c1OC [Compound 1, N4-(2,2-Dimethyl-3-oxo-4H-5-pyrid[1,4]oxazin-6-yl)-5-fluoro-N2-(3,4,5-trimethoxyphenyl)-2,4-pyrimidinediamine] | –
> 5000 | approximately 2000 times greater | COc1cc(Nc2ncc(F)c(Nc3ccc4c(n3)N(COP(=O)(O)O)C(=O)C(C)(C)O4)n2)cc(OC)c1OC [Compound 4] | lower
